# Test results as given in US11746116B2, “Antibiotic resistance breakers” (KING'S COLLEGE LONDON, priority 2017, dated 2023).
# Read-outs that look alike come from different tables or passages of the source.
# Assays:
# Test in all cases: MIC, microdilution broth method
# M6 = assay type: cell-based
# EC12923 = assay type: cell-based
# Ab17978 = assay type: cell-based
# MSSA9144 = assay type: cell-based, Staphylococcus aureus
# VRE12201 = assay type: cell-based, Enterococcus faecalis
# PA01 = assay type: cell-based, Pseudomonas aeruginosa; conditions: PA01, in µg/mL
# EMRSA16 = assay type: cell-based, Staphylococcus aureus
# KP13368 = assay type: cell-based
# EMRSA15 = assay type: cell-based, Staphylococcus aureus
# VSE775 = assay type: cell-based, Enterococcus faecalis; design: MIC, VSE775: unit not given beside the values
# VRE12204 = assay type: cell-based, Enterococcus faecium; conditions: in µg/mL; for MIC: VRE12204
# [1] = Ab17978, Normal (no PMBN), in µg/mL
# [2] = KP13368, Normal (no PMBN), in µg/mL
# [3] = ESKAPE panel, Gram-negative, in µg/mL
# [4] = ESKAPE panel, Gram-positive, in µg/mL
"MIC (MSSA9144; MSSA9144, in µg/mL)","MIC (VRE12201; VRE12201, in µg/mL)","MIC (EMRSA16; EMRSA16, in µg/mL)","MIC (EMRSA15; EMRSA15, in µg/mL)","MIC (VSE775; VSE775, in µg/mL)",MIC (VRE12204),SMILES,"MIC (M6; M6, Normal (no PMBN), in µg/mL)",MIC (Ab17978; [1]),MIC (PA01; Normal (no PMBN)),MIC (KP13368; [2]),further results
0.125-0.25,2,>32,16-32,4-8,0.25,CCn1cc(C(=O)O)c(=O)c2cc(F)c(N3CCN(Cc4ccc(N(C)C)cc4)CC3)cc21 [ML-77-113],4-16,2,16-32,32,
≤0.12,1,32,,1-2,,Cc1nc(-c2ccc(CN3CCN(c4cc5c(cc4F)c(=O)c(C(=O)O)cn5C4CC4)CC3)cc2)no1 [ML-77-163],2,0.5-1,32,,
0.5,4,32,32,4-8,8,"CCn1cc(C(=O)O)c(=O)c2cc(F)c(N3CCN(Cc4ccc(CO)cc4)CC3)cc21 [ML-77-148, 1-ethyl-6-fluoro-7-(4-(4-(hydroxymethyl)benzyl)piperazin-1-yl)-4-oxo-1,4-dihydroquinoline-3-carboxylic acid]",4,2,32,32,
0.25,2,16-32,16,4,4,CCn1cc(C(=O)O)c(=O)c2cc(F)c(N3CCN(Cc4ccccc4)CC3)cc21 [ML-77-047],4,1-16,32,32,
<0.12,0.5,8,4,0.5,4-8,O=C(O)c1cn(C2CC2)c2cc(N3CCN(Cc4ccc(-c5csnn5)cc4)CC3)c(F)cc2c1=O [ML-77-157],1,0.25-0.5,,,
0.25,1,8,4-8,2-4,8,Cc1cc(C)cc(CN2CCN(c3cc4c(cc3F)c(=O)c(C(=O)O)cn4C3CC3)CC2)c1 [ML-77-149],4-8,4,32,,
0.25,1,,16-32,1-2,16,COCc1ccc(CN2CCN(c3cc4c(cc3F)c(=O)c(C(=O)O)cn4C3CC3)CC2)cc1 [ML-83-050],2,1,,,"MIC (EC12923; EC12923, in µg/mL): 1"
1,4,2,2,2,2,O=C(O)c1cn(C2CC2)c2cc(N3CCN(Cc4ccc(-c5ccccc5)cc4)CC3)c(F)cc2c1=O [ML-77-133],1,2,4,,
0.5,2-4,,,2-4,16,COCc1cccc(CN2CCN(c3cc4c(cc3F)c(=O)c(C(=O)O)cn4C3CC3)CC2)c1 [ML-83-036],8,2,,,"MIC (EC12923; EC12923, in µg/mL): 4"
<0.12,0.5,2,2,2-4,1-2,O=C(O)c1cn(C2CC2)c2cc(N3CCN(Cc4cccc5ccsc45)CC3)c(F)cc2c1=O [ML-77-078],32,4-8,,,
0.5,4,>32,>32,8,8,CCn1cc(C(=O)O)c(=O)c2cc(F)c(N3CCN(Cc4cccc5c4OCO5)CC3)cc21 [ML-77-035],8-16,2-4,64-128,,
1,2,2,2,2,1-2,CCn1cc(C(=O)O)c(=O)c2cc(F)c(N3CCN(Cc4cccc5c4CCCC5)CC3)cc21 [ML-77-077],64,32-128,,,
<0.12,4,16,8,8,16,"CCn1cc(C(=O)O)c(=O)c2cc(F)c(N3CCN(Cc4ccc(-c5csnn5)cc4)CC3)cc21 [ML-77-161, 7-(4-(4-(1,2,3-thiadiazol-4-yl)benzyl)piperazin-1-yl)-1-ethyl-6-fluoro-4-oxo-1,4-dihydroquinoline-3-carboxylic acid]",4-8,2,64,64,
0.25-0.5,,,,,,O=C(O)c1cn(C2CC2)c2cc(N3CCN(Cc4ccc(S(=O)(=O)NCCc5c[nH]c6ccccc56)cc4)CC3)c(F)cc2c1=O [ML-77-138],,64,,,"MIC (M6; M6, +PMBN, in µg/mL): 1; MIC (PA01; +PMBN): ≤0.12; MIC (Ab17978; Ab17978, +PMBN, in µg/mL): 1"
0.0625-0.125,0.125-0.5,,8-16,0.25-1,1,CN(C)c1ccc(CN2CCN(c3cc4c(cc3F)c(=O)c(C(=O)O)cn4C3CC3)CC2)cc1 [ML-77-112],1-2,0.5-1,8,,
1,8,,,16,,CCn1cc(C(=O)O)c(=O)c2cc(F)c(N3CCN(Cc4cccc5cccnc45)CC3)cc21 [ML-77-053],8,4,64,64,

SMILES,"MIC (MSSA9144; MSSA9144, in µg/mL)","MIC (VRE12201; VRE12201, in µg/mL)","MIC (EMRSA16; EMRSA16, in µg/mL)","MIC (EMRSA15; EMRSA15, in µg/mL)","MIC (VSE775; VSE775, in µg/mL)",MIC (VRE12204),"MIC (M6; M6, Normal (no PMBN), in µg/mL)",MIC (Ab17978; [1]),MIC (PA01; Normal (no PMBN)),MIC (KP13368; [2]),further results
C[C@H]1COc2c(N3CCN(c4ccncc4)CC3)c(F)cc3c(=O)c(C(=O)O)cn1c23 [ML-83-019],64,,,,,,64,64,,,"MIC (EC12923; EC12923, in µg/mL): 32"
"CCn1cc(C(=O)O)c(=O)c2cc(F)c(N3CCN(Cc4cccc(COC)c4)CC3)cc21 [ML-83-037, 1-ethyl-6-fluoro-7-(4-(3-(methoxymethyl)benzyl)piperazin-1-yl)-4-oxo-1,4-dihydroquinoline-3-carboxylic acid]",1,8,64,64-128,16,16,32,8,,64-128,"MIC (EC12923; EC12923, in µg/mL): 16"
"Cc1cc(N2CCN(c3c(F)cc4c(=O)c(C(=O)O)cn5c4c3OC[C@@H]5C)CC2)nc(C(C)C)n1 [ML-83-011, (S)-9-fluoro-10-(4-(2-isopropyl-6-methylpyrimidin-4-yl)piperazin-1-yl)-3-methyl-7-oxo-2,3-dihydro-7H-[1,4]oxazino[2,3,4-ij]quinoline-6-carboxylic acid]",0.25,,16,16,1,8,16-64,16,,64,"MIC, M6 (M6; [3]): 16-64; MIC (M6; Klebsiella pneumoniae (M6), Gram-Negative, read-out: MIC): 16 to 64 µg/mL; MIC (EC12923; EC12923, in µg/mL): 1-8; MIC, EC12923 (EC12923; [3]): 1-8; MIC (EC12923; Escherichia coli (EC12923), Gram-Negative, read-out: MIC): 1 to 8 µg/mL; MIC, VRE12201 (VRE12201; [4]): 0.5-1; MIC (VRE12201; Enterococcus faecalis, Enterococcus (VRE12201), Gram-Positive, read-out: MIC): 0.5 to 1 µg/mL; MIC, EMRSA16 (EMRSA16; [4]): 16; MIC (EMRSA16; Staphylococcus aureus (EMRSA16), Gram-Positive (Table 14), read-out: MIC): 16 µg/mL; MIC, KP13368 (KP13368; ESKAPE panel, Gram-negative): 64 µg/mL; MIC (KP13368; Klebsiella pneumoniae (KP13368), Gram-Negative, read-out: MIC): 64 µg/mL; MIC, EMRSA15 (EMRSA15; [4]): 16; MIC (EMRSA15; Staphylococcus aureus, Staphylococcus aureus (EMRSA15), Gram-Positive (Table 14), read-out: MIC): 16 µg/mL; MIC, VSE775 (VSE775; ESKAPE panel, Gram-positive): 1; MIC (VSE775; Enterococcus faecalis, Enterococcus (VRE775), Gram-Positive, read-out: MIC): 1 µg/mL; MIC, VRE12204 (VRE12204; ESKAPE panel, Gram-positive): 8; MIC (Ab17978; Acinetobacter baumannii (AB17978), Gram-Negative, read-out: MIC): 16 µg/mL; MIC, Ab17978 (Ab17978; [3]): 16; MIC (MSSA9144; Staphylococcus aureus (MSSA9144), Gram-Positive, read-out: MIC): 0.25 µg/mL"
"CCn1cc(C(=O)O)c(=O)c2cc(F)c(N3CCN(Cc4ccc(COC)cc4)CC3)cc21 [ML-83-052, 1-ethyl-6-fluoro-7-(4-(4-(methoxymethyl)benzyl)piperazin-1-yl)-4-oxo-1,4-dihydroquinoline-3-carboxylic acid]",0.5-1,8,64,64-128,8-16,16,8-16,4,,64,"MIC (EC12923; EC12923, in µg/mL): 4"
"CCn1cc(C(=O)O)c(=O)c2cc(F)c(N3CCN(Cc4ccc(-n5cccc5)cc4)CC3)cc21 [ML-77-136, 7-(4-(4-(1H-pyrrol-1-yl)benzyl)piperazin-1-yl)-1-ethyl-6-fluoro oxo-1-4-dihydroquinoline-3-carboxylic acid]",0.25-0.5,4-8,8-16,8,4-8,4-8,8-32,16-32,64-128,64-128,
